Reference: patent US10143748B2, “B-cell reduction using CD37-specific and CD20-specific binding molecules” (Emergent Product Development Seattle, LLC, priority 2005, dated 2018)
Entries after “also recorded” stand apart in the source; their conditions may differ.

Columns and labels:
[1] = molecular target: T1, CD37 cell surface receptor (Homo sapiens, UniProt P11049); experiment: TRU-016 binding to human PBMC, two-color flow cytometry
T1 construct: Human PBMCs were isolated over LSM density gradients and incubated with unconjugated TRU-016; endogenous in cells; host or cells: human PBMC (CD19-positive B lymphocyte gate)
T1 sequence (P11049 1-281): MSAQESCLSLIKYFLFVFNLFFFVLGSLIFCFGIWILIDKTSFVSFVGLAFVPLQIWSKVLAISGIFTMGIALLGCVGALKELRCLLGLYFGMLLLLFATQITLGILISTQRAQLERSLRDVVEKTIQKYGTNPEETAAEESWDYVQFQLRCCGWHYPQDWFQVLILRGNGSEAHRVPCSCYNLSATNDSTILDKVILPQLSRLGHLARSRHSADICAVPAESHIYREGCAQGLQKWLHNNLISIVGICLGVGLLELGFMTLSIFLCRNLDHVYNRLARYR
Experimental: Experiments were also performed to determine that the binding specificity of the parent antibody to the CD37 cell surface receptor is preserved in TRU-016. Human PBMCs were isolated over LSM density gradients and incubated with unconjugated TRU-016 and PE-conjugated anti-human CD19. Cells were washed and incubated with 1:100 FITC GAH IgG (Fc specific) for 45 minutes on ice. Cells were washed and analyzed by two-color flow cytometry on a FACsCalibur instrument using Cell Quest software. Cells were gated for B lymphocytes or non-B lymphocytes by CD19 staining.
With increasing concentrations of TRU-016, the FITC signal on the B lymphocyte (CD19 positive gate) increased rapidly from 0.01-1.0 μg/ml, until it reached saturation at approximately 1 μg/mL or a mean fluorescence intensity (MFI) of 1000. […] Thus, the staining pattern of the G28-1 murine monoclonal antibody is preserved with TRU-016 (FIG. 1C).

[2] = test system: Ramos B cells; experiment: CDC assay, Ramos B cells with human serum complement, propidium iodide; assay type: cell-based; details: Ramos B cells, human serum
Experimental: (§1) The cells were incubated 60 minutes at 37° C. […] Samples were incubated 15 minutes at room temperature in the dark prior to analysis by flow cytometry using a FACsCalibur and CellQuest software (Becton Dickinson).
as §1

[3] = test system: DHL-4 B cells; experiment: CDC assay on DHL-4 B cells; assay type: cell-based; details: FIG. 7
Experimental: Cells were suspended in Iscoves (#12440-053, Gibco/Invitrogen, Granland, N.Y.) at 5×10E^5 cells/well in 75 μl. […] Binding reactions were allowed to proceed for 45 minutes prior to centrifugation and washing in serum free Iscoves. Cells were resuspended in Iscoves with human serum (#A113, Quidel, San Diego, Calif.) at the indicated concentrations. The cells were incubated 60 minutes at 37° C. Cells were washed by centrifugation and resuspended in 125 μl PBS with 2% FBS (#16140-071, Gibco, Invitrogen, Grand Island, N.Y.), staining media. The cells were transferred to FACS cluster tubes (#4410, CoStar, Corning, N.Y.) and 125 μl staining media with 5 μl propidium iodide (PI, #P-16063, Molecular Probes, Eugene Oreg.) was added. Samples were incubated 15 minutes at room temperature in the dark prior to analysis by flow cytometry using a FACsCalibur and CellQuest software (Becton Dickinson).

[4] = test system: Ramos tumors; experiment: Ramos tumor xenograft in nude mice; assay type: in vivo, mouse
Experimental: Mouse tumor xenograft studies exploring combination therapies were performed using nude mice (Harlan) and Ramos or Daudi human tumor lines. Ramos or Daudi tumor cells were grown in T150 flasks in IMDM/10% FBS until they reached 80% confluency. Five million (5×10^6) cells were used as a tumor inoculum per mouse. Cells were injected subcutaneously in the right flank using PBS in a total volume of 0.1 ml or 5.0×1 0^7/ml. Nude mice were allowed to develop tumors and sorted into groups based on tumor size/volume. For each treatment group, 12 mice with a mean tumor volume of approximately 222 mm^3 (range =152-296mm^3) were used. Some mean tumor volumes ranging from 237-251 mm^3 were also used. […] Tumor volume was measured daily with calipers until completion of the experiment (sacrifice or regression).
Mouse tumor xenograft studies were performed using nude mice (Harlan) and Ramos or Daudi human tumor lines. Three different studies were performed based on tumor type and tumor size at the time of treatment with the TRU-016 or other test reagent. Ramos or Daudi tumor cells were grown and (5×10^6) cells were injected subcutaneously in the right flank to inoculate each treated mouse with the tumor. Nude mice were allowed to develop tumors and sorted into groups based on tumor size/volume. In the first study, for each treatment group, 12 mice with a mean tumor volume of 155-237 mm^3 were used. […] Tumor volume was measured daily with calipers until completion of the experiment (sacrifice or regression).
(§2) Ramos and Daudi tumor cells were separately grown and (5×10^6) cells were injected subcutaneously in the right flank of mice to initiate the formation of mouse tumor xenografts. After tumor development, mice were sorted into groups based on tumor size/volume (day 0). […] Tumor volume was blindly measured three times weekly with calipers until completion of the experiment (sacrifice or regression).

[5] = test system: Daudi tumors; experiment: Daudi tumor xenograft in nude mice; assay type: in vivo, mouse
Experimental: as §2

[6] = test system: Rituximab-resistant cells (Raji 4RH and RL 4RH); experiment: direct cytotoxicity in rituximab-resistant cells, annexin/PI; assay type: cell-based; details: TRU-016 5 μg/mL, rituximab 10 μg/mL, five-fold excess goat anti-human IgG, 24 hours
Experimental: Direct cytoxicity was measured by annexin/PI staining and cell viability (percent) was calculated relative to control cells (cells treated with herceptin).

[7] = established Daudi tumors, 100 μg

G28-1 scFv VH11S(SSC—P)H WCH2 WCH3 [TRU-016]
mean fluorescence intensity (MFI) at saturation ([1]; B lymphocyte (CD19 positive gate)): 1000
staining of / binding to the non-B lymphocyte population ([1]; CD19 negative gate): much lower level of binding; also recorded: detectable, but very low
binding to human peripheral blood B lymphocytes ([1]; flow cytometry, FIG. 1C): high level, specific binding
concentration at which FITC signal on B lymphocytes (CD19 positive gate) reached saturation ([1]; human PBMC, FITC GAH IgG detection): approximately 1 μg/mL
CDC activity with human complement, single reagent [2]: fails to mediate CDC unless aggregates are present
CDC killing of DHL-4 B cells [3]: little or no activity alone
long-term complete regression of tumors (tumor regression rate) ([4]; Ramos tumors, 200 μg, pooled data from 3 experiments): 20%
average tumor volume after treatment ([4]; Ramos, 200 μg/mouse IV days 0, 2, 4, 6, 8, versus huIgG): smaller than that observed using the negative control (huIgG)
Median Survival Time ([4]; established Ramos tumors, 200 μg): 16 days
Percentage of Tumor- Free Mice at Day 90 ([4]; established Ramos tumors, 200 μg, IV days 0, 2, 4, 6, 8): 20%
survival time / median survival time ([4]; established Ramos tumors, combination vs TRU-016 p=0.028, vs rituximab p=0.045): inhibition of tumor growth and improved survival times equivalent to rituximab
tumor growth and median survival ([4]; mice with the smaller Ramos tumors): inhibition of tumor growth and increased median survival times
survival time ([5]; Daudi tumor xenograft, FIGS. 25 and 26): more effective than rituximab in maintaining survival; also recorded: significantly enhanced survival time compared to the control group; also recorded: statistically significant increase in median survival time
Median Survival Time [5, 7]: 24 days
Percentage of Tumor Free Mice at Day 90 [5, 7]: 25%
cell toxicity (cell viability relative to herceptin-treated cells) [6]: greater cell toxicity than rituximab
